ChEMBL document CHEMBL5728170, “Substituted pyrrolizine compounds and uses thereof” (2020)

Experiment: HBV DNA Quantification Assay: A HepG2 cell line overexpressing the HBV virus attachment receptor sodium-taurocholate cotransporting polypeptide (NTCP) was grown to confluency in DMEM growth medium, Dulbecco's Modified Eagle Medium without sodium pyruvate (Life Technologies, Rockville, Md.) supplemented with 10% FBS (Thermo Scientific, Waltham, Md.), 1% penicillin/streptomycin (Life Technologies, Rockville, Md.) and 2 mM L-glutamine (Life Technologies, Rockville, Md.) in T175 flasks. Cells were infected with HBV AD38 viral particles (Texcell, Frederick, USA) at 4000 genome equivalents per cell. After allowing viral infection to take place for 4 days, the infected cells were harvested from the flasks by trypsinization, washed twice with OptiMEM (Life Technologies, Rockville, Md.) and re-suspended in DMEM containing 2% FBS and 1% DMSO at a density of 0.25E6 cells/ml. Infected cells were seeded on 384 well collagen coated plates (Greiner, Austria) at a density of 20,000 cells/well containing serially diluted compounds of the present disclosure or DMSO (0.5%) in a final volume of 80 μl. The assay plates were incubated for a period of 5 days and the antiviral activity of the test compounds were assayed by detecting the presence of HBV DNA in the culture supernatant using the QuantiGene™ 2.0 nucleic acid quantification kit (Affymetrix, Santa Clara, Calif.).The culture supernatant was harvested and treated with lysis buffer containing Proteinase K (Affymetrix, Santa Clara, Calif.). The supernatant was incubated with HBV viral DNA specific probes (Affymetrix, Santa Clara, Calif.) for 30 minutes at 55° C. This was followed by addition of 0.2M NaOH for 30 minutes at room temperature to denature the DNA, followed by addition of Neutralization buffer (Affymetrix, Santa Clara, Calif.). The resulting lysed and neutralized supernatant was then added to QuantiGene™ 2.0 384 well plates coated with capture oligonucleotides and incubated overnight at 55° C. The HBV specific probe set consists of Capture Extender oligonucleotides (CE's) and blocking probes. Following the overnight incubation, the wells were incubated for one hour sequentially with a Pre-Amplifier, Amplifier and Labeled probes conjugated to alkaline phosphatase with a wash step between incubations. After the final wash step, the alkaline phosphatase substrate (Luminol APS5) was added and the resulting luminescence signal was read in an EnVision Multilabel Plate Reader (PerkinElmer, Santa Clara, Calif.). The EC50 values were calculated from the fit of the dose-response curves to a four-parameter equation.
Work on `CNC(=O)C1(NC(=O)C(=O)c2c(C)c(C(=O)OC)n3c2C[C@H]2C[C@H]23)CC(F)(F)C1` yielded an EC50 of 8.8 nM.
Work on `Cc1c(C(=O)C(=O)NC2(C(=O)N3CC4(C3)CN(S(C)(=O)=O)C4)CC(F)(F)C2)c2n(c1C(=O)Nc1ccc(F)c(C#N)c1)CCC2` yielded an EC50 of 112 nM.
For `CC(NC(=O)C(=O)c1c(Cl)c(C(=O)Nc2ccc(F)c(C#N)c2)n2c1CCC2)C(F)(F)F` (centres undefined), the EC50 was 27.1 nM.
In the case of `Cc1c(C(=O)C(=O)NC2(C(=O)N3CC4(COC4)C3)CC(F)(F)C2)c2n(c1C(=O)Nc1ccc(F)c(C#N)c1)CCC2`, the EC50 is reported as 32.3 nM.
